Measurements as given in article PMC12518639, “Apomorphine is a novel necroptosis inhibitor targeting mixed lineage kinase domain-like protein oligomerization” (Cell Death Discovery, 2025).

How the values were obtained:
[1] = Auto-oxidation of APO in solution by real-time 1D 1H NMR; format: physicochemical; conditions: freshly dissolved in DPBS, 25 °C, 36 h
Protocol: Fig. 2 Effect of redox-sensitive APO on MLKL oligomerization. A Chemical structure of APO. APO undergoes auto-oxidation to form the oxidized form (Ox-APO), while the addition of DTT preserves the reduced form (Re-APO). The red highlights indicate the sites where APO loses hydrogen and electrons during the oxidation process. B Real-time 1D ^1H NMR spectra showing the degree of oxidation of APO. APO was dissolved from its powdered form in DPBS and incubated at 25 °C for 36 h. Real-time 1D ^1H NMR spectra were measured at a 2 h intervals after filtration through a 0.2 μm syringe filter to remove precipitates. […] C MLKL oligomerization is inhibited by APO. THP-1 cells were treated with TBZ and Re-APO or Ox-APO for 8 h. Western blot analysis of WCLs was performed under non-reducing and reducing conditions using the indicated antibodies. Percentage changes of p-MLKL oligomer band relative to GAPDH were shown. The p value for MLKL oligomer band intensity was calculated based on the average intensity of the tetramer and octamer bands. Octa octamer, Tetra tetramer, Mono monomer. Mean ± SEM (n = 3). **p < 0.001, ns not significant, one-way ANOVA. D THP-1 cells were treated with TBZ and Ox-APO or Re-APO for 8 h and then stained with DAPI and MLKL for confocal microscopy. […] The signal intensity of MLKL fluorescence from the plasma membrane to the cytosol was measured using FluoView FV1000 software. […]

THP-1-HMGB1-Lucia cells = assay: TBZ-induced necroptosis screening by HMGB1-luciferase release; format: cell-based, human; conditions: Homo sapiens; 20 μM compound with TBZ, 8 h; TBZ alone = 100, DPBS = 0; read-out: % Inhibition (luciferase activity relative to TBZ-treated supernatant)
Protocol: To identify potential inhibitors of the necroptosis pathway targeting MLKL or the process of p-MLKL pore formation on the membrane, we screened a library of 2150 compounds, including FDA-approved drugs and those in phase 1–3 clinical trials, using THP-1-HMGB1-Lucia™ cells expressing the HMGB1-luciferase fusion protein. The cells were treated with a necroptosis-inducing mixture containing TNF-α, BV6, and Z-VAD-FMK (TBZ) in addition to the compound library (Fig. 1A). The supernatants were harvested to measure luciferase activities for necroptosis. The luciferase activities of cell supernatants treated with TBZ alone were considered as the maximum release (100%) of HMGB1-luciferase. NEC-1, a known RIP1 inhibitor used in both humans and mice, was used as a positive control. […] Next, we performed a propidium iodide (PI) uptake assay to exclude cytotoxic compounds using THP-1 cells. Then, we selected candidate molecules that were arbitrarily less than 30% of those treated with TBZ. […] Next, the inhibition levels of p-MLKL were tested to select MLKL-targeting molecules (Figs. 1C and S1A). Compounds that reduced p-MLKL levels to less than 30% of TBZ-treated controls were considered as potential inhibitors of MLKL phosphorylation. Conversely, compounds that maintained p-MLKL levels above 70% were selected because they are presumed to prevent the formation of pores in the plasma membrane by interfering with oligomerization.
A clinical chemical library containing 2150 items (Korea Chemical Bank, South Korea), under phase 1–3 clinical trials, including FDA-approved drugs, was used to screen for necroptosis inhibitors. Each chemical was dissolved in DMSO and diluted to 20 μM in DPBS for treatment.
THP-1-HMGB1-Lucia^TM cells were pretreated with the pan-caspase inhibitor Z-VAD-FMK (50 μM, tlrl-vad, InvivoGen) and each chemical for 1 h, and followed by TNF-α (100 ng/mL, TNF0501, NKMAXBio, Seongnam, S. Korea) and Smac mimetic BV6 (10 μM, B1332-5, Biovision, Santa Clara, CA, USA), termed TBZ mixture, were added for necroptosis screening. The RIP1 inhibitor, NEC-1 (1846, Biovision), and MLKL inhibitor, NSA (432531-71-0, Sigma-Aldrich, St. Louis, MO, USA), were used as controls. The cell supernatant was harvested to measure HMGB1 levels using a luciferase assay kit (E1500, Promega, Madison, WI, USA) by a luminometer (Centro XS3 LB 960, Berthold Technologies, Bad Wildbad, Germany). The inhibition of necroptosis (%) was calculated as: (sample-treated data – medium-only data) × 100/(TBZ-treated data – medium-only data). APO [STK088477, (6aS)-6-methyl-5,6,6a,7-tetrahydro-4H-dibenzo[de,g]quinoline-10,11-diol, Vitas-M Laboratory, Hong Kong] was stored at −70 °C after aliquoting with DMSO. APO was used after dilution in DPBS. APO is susceptible to auto-oxidation in solution in the presence of light and air. DPBS containing 5 mM DTT was used for Re-APO. Ox-APO was prepared by incubating APO in DPBS at 25 °C for 24 h in the presence of light and air, followed by removal of any precipitate by filtration through 0.2 μm.

- time to saturation of APO oxidation [1]: 24 h
SMILES: CN1CCc2cccc3c2[C@@H]1Cc1ccc(O)c(O)c1-3 [S62, (6aS)-6-methyl-5,6,6a,7-tetrahydro-4H-dibenzo[de,g]quinoline-10,11-diol]
- activity at 20 µM (THP-1-HMGB1-Lucia cells): 7.1%
